Bridge positions count the residues as written; N and C are the ends. Square brackets hold non-standard residues; d marks the D form. Peptide text beside a SMILES is read from it. I, II: the chains in the order shown. * marks the point of attachment. DOTA = O=C(O)CN1CCN(CC(=O)O)CCN(CC(=O)*)CCN(CC(=O)O)CC1; Nle = CCCC[C@H](N)C(=O)O; Dap = NC[C@H](N)C(=O)O

Data on four compounds can be found in article PMC3250963, “Novel dimeric DOTA-coupled peptidic Y1-receptor antagonists for targeting of neuropeptide Y receptor-expressing cancers” (EJNMMI Research, 2011).

Assay [1] deals with T1, NPY Y2 receptor (Homo sapiens, UniProt P49146).
T1 construct: SH-SY5Y cells endogenously expressing Y2; endogenous in cells; host or cells: SH-SY5Y
T1 sequence (P49146 1-381): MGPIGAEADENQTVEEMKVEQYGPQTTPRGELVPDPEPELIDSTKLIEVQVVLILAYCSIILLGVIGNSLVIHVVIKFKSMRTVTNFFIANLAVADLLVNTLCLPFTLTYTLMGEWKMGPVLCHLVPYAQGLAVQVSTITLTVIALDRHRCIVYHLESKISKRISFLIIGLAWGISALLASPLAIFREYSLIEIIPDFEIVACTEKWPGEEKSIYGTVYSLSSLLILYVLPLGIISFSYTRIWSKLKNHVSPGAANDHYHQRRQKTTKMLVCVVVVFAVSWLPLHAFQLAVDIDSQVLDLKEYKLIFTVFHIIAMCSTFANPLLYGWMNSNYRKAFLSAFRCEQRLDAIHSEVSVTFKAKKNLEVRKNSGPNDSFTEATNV
Description: Receptor autoradiography competition binding (125I-hPYY) on SH-SY5Y cell membrane pellet sections. The following applies: SH-SY5Y membrane pellets, 125I-hPYY displacement; n ≥ 3; read-out: Binding affinity Y2 (IC50). The method, then: (§1) The neuroepithelioma cell line SK-N-MC endogenously expressing the NPY Y1 receptor was obtained from ATCC (HTB-10; LGC Standards, Teddington, Middlesex, UK) and cultured at 37°C and 5% CO2 in MEM with GlutaMax I and supplemented with 10% FBS, 100 U/ml penicillin and 100 μg/ml streptomycin, 1 mM MEM sodium pyruvate, and MEM non-essential amino acids (× 1). The neuroblastoma cell line SH-SY5Y endogenously expressing the NPY Y2 receptor, kindly provided by Dr. Paolo Paganetti (Novartis, Basel, Switzerland), was cultured at 37°C and 5% CO2 in MEM/Ham's F12 with GlutaMax I and supplemented with 10% FBS, 100 U/ml penicillin and 100 μg/ml streptomycin, 1 mM MEM sodium pyruvate, and MEM non-essential amino acids (× 1). All culture reagents were from Gibco BRL, Life Technologies, (Grand Island, NY, USA).
(§2) Binding affinities of the compounds were assessed using sections of cell membrane pellets of SK-N-MC for Y1 or SH-SY5Y for Y2, as described before. Briefly, membrane pellets were prepared and stored at -80°C, and receptor autoradiography was performed on 20-μm-thick cryostat (Microm HM 500, Walldorf, Germany) sections of the membrane pellets, mounted on microscope slides and stored at -20°C as previously described for other cell lines and receptors. The slides were preincubated in Krebs-Ringer solution (NaCl 119 mM, KCl 3.2 mM, KH2PO4 1.19 mM, MgSO4 1.19 mM, NaHCO3 25 mM, CaCl2 2.53 mM, D-glucose 10 mM; pH 7.4) for 60 min at room temperature. Then, they were incubated for 120 min in the incubation solution containing the Krebs-Ringer solution, 0.1% BSA, 0.05% bacitracin, and 10,000 cpm/100 μl of the ^125I-labeled human PYY (hPYY; 2,000 Ci/mmol; Anawa, Wangen, Switzerland). Membrane pellet sections were incubated with ^125I-hPYY in increasing concentrations ranging from 0.1 nM up to 1,000 nM of non-labeled hPYY, as control, or with the compounds to be tested. After the incubation, the slides were washed two times for 5 min and then rinsed four times in ice-cold preincubation solution. After drying, the slides were exposed to Kodak films Biomax MR® for 7 days. IC50 values were calculated after quantification of the data using a computer-assisted image processing system (Analysis Imaging System, Interfocus, Mering, Germany). Tissue standards (autoradiographic [^125I] and/or [^14C] microscales, GE Healthcare, Little Chalfont, UK) containing a known amount of isotope, cross-calibrated to tissue-equivalent ligand concentrations were used for quantification.

Assay [2] has as its target T2, NPY Y1 receptor (Homo sapiens, UniProt P25929).
T2 construct: SK-N-MC cells endogenously expressing Y1; host or cells: SK-N-MC
T2 sequence (P25929 1-384): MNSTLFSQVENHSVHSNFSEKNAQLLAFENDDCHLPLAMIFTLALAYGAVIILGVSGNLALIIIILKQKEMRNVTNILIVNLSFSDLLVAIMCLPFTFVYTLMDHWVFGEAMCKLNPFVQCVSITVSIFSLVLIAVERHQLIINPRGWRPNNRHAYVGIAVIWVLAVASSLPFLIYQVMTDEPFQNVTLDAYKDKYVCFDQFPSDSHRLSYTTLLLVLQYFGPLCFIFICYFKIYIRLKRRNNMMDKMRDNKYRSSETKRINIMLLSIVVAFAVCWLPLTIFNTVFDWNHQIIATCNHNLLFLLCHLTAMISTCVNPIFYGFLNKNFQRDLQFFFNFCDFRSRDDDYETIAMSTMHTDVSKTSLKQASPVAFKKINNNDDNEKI
Description: Receptor autoradiography competition binding (125I-hPYY) on SK-N-MC cell membrane pellet sections. The following applies: for IC50: SK-N-MC membrane pellets, 125I-hPYY displacement, mean ± SEM, n ≥ 3, read-out: Binding affinity Y1 (IC50). On the procedure:
as §1, §2

Assay [3] deals with T2, NPY Y1 receptor. Put plainly: Forskolin-stimulated adenylate cyclase activity (cAMP flashplate assay) in SK-N-MC cells. The format is cell-based. The following applies: 10 μM forskolin. The method, then: Adenylate cyclase activity was determined in SK-N-MC cells using the adenylate cyclase activation flashplate assay (SMP004) from PerkinElmer (Waltham, MA, USA). SK-N-MC cells were seeded in 96-well culture plates at 25,000 cells/well and cultured for 48 h at 37°C and 5% CO2. Culture medium was then removed from the wells and fresh medium (100 μL) containing 0.5 mM 3-isobutyl-1-methylxanthine (IBMX) was added to each well. Cells were incubated for 30 min at 37°C. Medium was then removed and replaced with fresh medium containing 0.5 mM IBMX, with or without 10 μM forskolin and various concentrations of the peptides to be analyzed. Cells were incubated for 30 min at 37°C. After removal of the medium, cells were lysed and cAMP accumulation was determined using the SMP004 kit from PerkinElmer according to the instructions of the manufacturers.
Figure 4 Effect of various Y1 affine analogs on forskolin-stimulated intracellular cAMP accumulation in SK-N-MC cells. Cells were incubated for 30 min with 10 μM forskolin either alone, or with 10 μM forskolin in the presence of 20 μM or 100 nM of the reference compound [Leu^31, Pro^34]-PYY (LP-PYY), or with 10 μM forskolin in the presence of the various Y1 affine analogs either alone at a concentration of 20 μM or at a concentration of 20 μM in the presence of 100 nM LP-PYY. Intracellular cAMP accumulation was then determined as described in Methods. Results are shown as percentage of the 10 μM forskolin effect on intracellular cAMP accumulation.
Cells were incubated for 30 min with 10 μM forskolin in the presence of [Leu^31, Pro^34]-PYY (LP-PYY) at concentrations ranging between 0.01 nM and 20 μM alone (solid circle) or with 10 μM forskolin in the presence of LP-PYY at concentrations ranging between 0.01 nM and 20 μM supplemented with a fixed concentration of 20 μM of the analog 11 (solid square). […] Compound 11 given alone at a concentration of 20 μM has no effect on the accumulation of forskolin-stimulated cAMP (solid triangle).

`CCCC[C@H](NC(=O)[C@H](CCCNC(=N)N)NC(=O)[C@H](Cc1c[nH]c2ccccc12)NC(=O)[C@H](CSSC[C@H](NC(=O)[C@@H]1CCCN1C(=O)[C@H](CC(N)=O)NC(=O)[C@@H](N)[C@@H](C)CC)C(=O)N[C@@H](Cc1c[nH]c2ccccc12)C(=O)N[C@@H](CCCNC(=N)N)C(=O)N[C@@H](CCCC)C(=O)N[C@@H](CCCNC(=N)N)C(=O)N[C@@H](Cc1ccc(O)cc1)C(N)=O)NC(=O)[C@@H]1CCCN1C(=O)[C@H](CNC(=O)CN1CCN(CC(=O)O)CCN(CC(=O)O)CCN(CC(=O)O)CC1)NC(=O)[C@@H](N)[C@@H](C)CC)C(=O)N[C@@H](CCCNC(=N)N)C(=O)N[C@@H](Cc1ccc(O)cc1)C(N)=O` [Analog 8] (I: H-I[Dap](DOTA)PCWR[Nle]RY-NH2 / II: H-INPCWR[Nle]RY-NH2; disulfide I:4-II:4): the results for the IC50 in assay [1] and in assay [2] were more than 1000 nM and 29 ± 7 nM, respectively.
With `CCCC[C@H](NC(=O)[C@H](CCCNC(=N)N)NC(=O)[C@H](Cc1c[nH]c2ccccc12)NC(=O)[C@H](CSSC[C@H](NC(=O)[C@@H]1CCCN1C(=O)[C@H](CCCCN)NC(=O)[C@@H](N)[C@@H](C)CC)C(=O)N[C@@H](Cc1c[nH]c2ccccc12)C(=O)N[C@@H](CCCNC(=N)N)C(=O)N[C@@H](CCCC)C(=O)N[C@@H](CCCNC(=N)N)C(=O)N[C@@H](Cc1ccc(O)cc1)C(N)=O)NC(=O)[C@@H]1CCCN1C(=O)[C@H](CCCCN)NC(=O)[C@@H](N)[C@@H](C)CC)C(=O)N[C@@H](CCCNC(=N)N)C(=O)N[C@@H](Cc1ccc(O)cc1)C(N)=O` [Analog 9] (I: H-IKPCWR[Nle]RY-NH2 / II: H-IKPCWR[Nle]RY-NH2; disulfide I:4-II:4), the IC50 was more than 1000 nM in assay [1] and 127 ± 50 nM in assay [2].
Regarding `CCCC[C@H](NC(=O)[C@H](CCCNC(=N)N)NC(=O)[C@H](Cc1c[nH]c2ccccc12)NC(=O)[C@H](CSSC[C@H](NC(=O)[C@@H]1CCCN1C(=O)[C@H](CCCCNC(=O)CN1CCN(CC(=O)O)CCN(CC(=O)O)CCN(CC(=O)O)CC1)NC(=O)[C@@H](N)[C@@H](C)CC)C(=O)N[C@@H](Cc1c[nH]c2ccccc12)C(=O)N[C@@H](CCCNC(=N)N)C(=O)N[C@@H](CCCC)C(=O)N[C@@H](CCCNC(=N)N)C(=O)N[C@@H](Cc1ccc(O)cc1)C(N)=O)NC(=O)[C@@H]1CCCN1C(=O)[C@H](CCCCNC(=O)CN1CCN(CC(=O)O)CCN(CC(=O)O)CCN(CC(=O)O)CC1)NC(=O)[C@@H](N)[C@@H](C)CC)C(=O)N[C@@H](CCCNC(=N)N)C(=O)N[C@@H](Cc1ccc(O)cc1)C(N)=O` [Analog 10] (I: H-IK(DOTA)PCWR[Nle]RY-NH2 / II: H-IK(DOTA)PCWR[Nle]RY-NH2; disulfide I:4-II:4), in assay [3] (analog 20 μM alone or with 100 nM [Leu31,Pro34]-hPYY), the “Functional assay cAMP for Y1” value was “Antagonist”. Besides, the results for the IC50 in assay [1] and in assay [2] were more than 1000 nM and 283 ± 52 nM, respectively. In addition, in assay [2] (SK-N-MC cell membrane pellet sections), the “Y1 binding affinity in words (displacement of 125I-hPYY)” value is listed as “lower affinity displacements of ^125I-hPYY”.
In the case of “[Leu^31, Pro^34]-hPYY [reference compound]”, the “Inhibition of forskolin-stimulated cAMP accumulation by agonist” value in assay [3] (agonist at 20 μM and 100 nM) was “efficiently inhibited forskolin-stimulated cAMP accumulation”.
